{
  "source": "paper PMC12058896",
  "about": "“Potent antimicrobial activity of hydrogel loaded with the antimicrobial peptide, D-Bac8c^2,5 Leu, against monospecies and polymicrobial biofilms of Staphylococcus aureus and Pseudomonas aeruginosa” (Frontiers in Microbiology, 2025)",
  "key": {"[1]": {"tested_on": "BH1CC", "assay": "microbe, parasite or virus in culture", "format": "cell-based, Staphylococcus aureus", "settings": "18 h", "protocol": "(§1) Strains used in the study were isolates of methicillin-resistant Staphylococcus aureus (MRSA); USA300 LAC, BH1CC ([O’Neill et al., 2007]), methicillin-sensitive S. aureus (MSSA); SH1000 ([Horsburgh et al., 2002]) and BH48 ([O’Neill et al., 2007]); and Pseudomonas aeruginosa PAO1 (ATCC […]). Clinical isolates were obtained from a previous collection of isolates of infected wounds. Bacteria were grown aerobically at 37°C with shaking at 200 rpm in Brain Heart Infusion (BHI, Oxoid, Ireland). Selective media, Mannitol Salt Agar (SLS, Ireland) and MacConkey agar (SLS, Ireland), for re-isolation of bacterial strains from mixed species biofilms were used. Bolton Broth (Fannin, Ireland) supplemented with 50% bovine heparin plasma (TebuBio, UK), and 5% laked horse blood (Sigma-Aldrich, Ireland) was used to mimic in vivo conditions for static antibiofilm testing. For dynamic biofilm growth Simulated Wound Fluid (SWF) prepared as described previously with slight modification, 3% v/v fetal bovine serum in maximum recovery diluent (Merck, Ireland) was used ([Barbour et al., 2016]).\n(§2) Minimum inhibitory concentration (MIC) was determined aerobically using the broth microdilution assay as recommended by the Clinical and Laboratory Standards Institute (CLSI) ([CLSI, 2018]). Briefly, 2-fold serial dilutions of the antimicrobial peptides of interest and conventional antibiotics were prepared in Mueller-Hinton broth (MHB) (Merck, Ireland) in a 96-well round bottom polypropylene plate (ThermoFisher, Ireland). Diluted bacterial suspensions in sterile PBS (Sigma, Ireland) were added to each well resulting in a final cell density of approximately 10^5 colony forming units (CFU)/mL. Microplates were incubated statically for 18 h at 37°C. In each assay, inoculated medium without antimicrobials and uninoculated medium served as growth and sterility controls, respectively. Conventional antibiotics, gentamicin (Merck, Ireland) and mupirocin (SLS, UK), were tested as comparator antimicrobials. The MIC value was defined as the lowest antimicrobial concentration showing no visible growth relative to positive (no antimicrobial agent) and negative controls (BHI alone). Experiments were conducted in triplicate, and independent replicates were performed three times to yield n = 3."}, "[2]": {"tested_on": "BH48", "assay": "microbe, parasite or virus in culture", "format": "cell-based, Staphylococcus aureus", "settings": "18 h", "protocol": "as §1, §2"}, "[3]": {"tested_on": "SH1000", "assay": "microbe, parasite or virus in culture", "format": "cell-based, Staphylococcus aureus", "settings": "SH1000, 18 h", "protocol": "as §1, §2"}, "[4]": {"tested_on": "USA300", "assay": "microbe, parasite or virus in culture", "format": "cell-based, Staphylococcus aureus", "settings": "USA300, 18 h", "protocol": "as §1, §2"}, "[5]": {"tested_on": "PAO1", "assay": "microbe, parasite or virus in culture", "format": "cell-based, Pseudomonas aeruginosa", "settings": "PAO1, 18 h", "protocol": "as §1, §2"}, "[6]": {"tested_on": "S. aureus strains", "format": "cell-based, Staphylococcus aureus", "settings": "2 MRSA and 2 MSSA strains, summed up in text", "protocol": "as §1\nMinimum inhibitory concentration (MIC) was determined aerobically using the broth microdilution assay as recommended by the Clinical and Laboratory Standards Institute (CLSI) ([CLSI, 2018]). […]"}, "[7]": {"tested_on": "PAO1 + SH1000 polymicrobial biofilm", "assay": "Static polymicrobial biofilm, CFU enumeration", "format": "cell-based, S. aureus + P. aeruginosa", "settings": "6 h, 37°C", "protocol": "(§3) Biofilms were formed under static conditions using flat 96-well polystyrene plates as described previously with few modifications ([Nasreddine et al., 2018]). Briefly, overnight cultures in BHI were washed and diluted 1:200 in fresh Bolton Broth media supplemented with 50% bovine heparin plasma, and 5% laked horse blood. From this suspension, 100 μL was used to inoculate the microtiter plate wells prior to static incubation at 37°C for 24 h, 3 days and 5 days. The media in each well was changed daily during prolonged incubation periods (3 and 5 days). Following the initial incubation period and washing, 100 μL of D-Bac8c^2,5 Leu, was added to each test well at 37°C for 6 h at a concentration range of 64–256 μg/mL. After incubation with D-Bac8c^2,5 Leu, biofilms were washed twice with PBS and biofilm assessment was performed. For the polymicrobial biofilms, a bacterial solution ratio 1:1 of S. aureus and P. aeruginosa at 1 × 10^5 CFU/mL each was used to inoculate the wells. In each assay, inoculated medium without antimicrobials and uninoculated medium served as growth and sterility controls, respectively. Experiments were conducted in triplicate, and independent replicates were performed three times to yield n = 3.\n(§4) After treatment, formed biofilms were washed twice with sterile PBS and then suspended in TrypLE solution (Gibco, Dublin, Ireland). A serial of 10-fold dilutions of the suspended biofilms were performed in 96-well flat bottom microplates. Then 10 μL of each dilution was plated in triplicate on MH agar using the drop method. For polymicrobial biofilms, dilutions were plated on Mannitol Salt Agar and MacConkey Agar. After overnight incubation at 37°C, CFU were counted and results were expressed as log10CFU/mL."}, "[8]": {"tested_on": "PAO1 + USA300 polymicrobial biofilm", "assay": "Static polymicrobial biofilm, CFU enumeration", "format": "cell-based, S. aureus + P. aeruginosa", "settings": "24 h biofilm PAO1 + USA300, 256 μg/mL, 6 h, 37°C", "protocol": "as §3, §4"}, "[9]": {"tested_on": "HUVEC", "assay": "MTT cell viability", "format": "cell-based, human", "settings": "24 h, 37°C, 5% CO2, average of three independent experiments"}, "[10]": {"tested_on": "pro-inflammatory cytokines", "settings": "cited from earlier work"}, "[11]": {"tested_on": "IL-8", "settings": "ref Zapotoczna et al. (2017); cited from earlier work", "source_text": "(§5) Similarly, here we verified that D-Bac8c^2,5 Leu has low toxicity to human monocytes THP-1."}, "[12]": {"tested_on": "TNFα", "settings": "ref Zapotoczna et al. (2017); cited from earlier work", "source_text": "as §5"}},
  "note": "Marks after values point to notes of the source that are not given here. Non-standard residues stand in square brackets, D forms with d. Residues, ends and D or L forms follow the SMILES beside them.",
  "data": [
    {"smiles": "CC(C)C[C@@H](NC(=O)[C@H](N)CCCNC(=N)N)C(=O)N[C@H](Cc1c[nH]c2ccccc12)C(=O)N[C@@H](C(=O)N[C@H](CC(C)C)C(=O)N[C@H](Cc1c[nH]c2ccccc12)C(=O)N[C@H](CCCNC(=N)N)C(=O)N[C@H](CCCNC(=N)N)C(N)=O)C(C)C", "note": "[D-Bac8c^2,5 Leu] (H-[dR][dL][dW][dV][dL][dW][dR][dR]-NH2; N-terminus assumed)", "values": [
      {"measurement": "MIC", "setting": "[1]", "result": 8, "unit": "µg/mL"},
      {"measurement": "MIC", "setting": "[2]", "result": 8, "unit": "µg/mL"},
      {"measurement": "MIC", "setting": "[3]", "result": 8, "unit": "µg/mL"},
      {"measurement": "MIC", "setting": "[4]", "result": 8, "unit": "µg/mL"},
      {"measurement": "MIC", "setting": "[5]", "result": 16, "unit": "µg/mL"},
      {"measurement": "MIC against S. aureus strains", "setting": "[6]", "result": 8, "unit": "µg/mL"},
      {"measurement": "Log change vs. untreated control", "setting": "[7]; 24 h biofilm PAO1 + SH1000, 64 μg/mL, left column of pair under S. aureus + P. aeruginosa", "result": "−0.6", "unit": "Log"},
      {"measurement": "Log change vs. untreated control", "setting": "[7]; 24 h biofilm PAO1 + SH1000, 64 μg/mL, right column of pair under S. aureus + P. aeruginosa", "result": "−0.64", "unit": "Log"},
      {"measurement": "Log change vs. untreated control", "setting": "[7]; 24 h biofilm PAO1 + SH1000, 128 μg/mL, left column of pair", "result": "−1.65* Log"},
      {"measurement": "Log change vs. untreated control", "setting": "[7]; 24 h biofilm PAO1 + SH1000, 128 μg/mL, right column of pair", "result": "−1.61* Log"},
      {"measurement": "Log change vs. untreated control", "setting": "[7]; 24 h biofilm PAO1 + SH1000, 256 μg/mL", "result": "−3.78*** Log"},
      {"measurement": "Log change vs. untreated control", "setting": "[8]", "result": "−2.44*** Log"},
      {"measurement": "IC50 (50% cell viability), MTT", "setting": "[9]", "result": 134, "unit": "µg/mL"},
      {"measurement": "release of pro-inflammatory cytokines in human blood", "setting": "[10]", "result": "did not induce"},
      {"measurement": "biofilm-induced increase in IL-8 levels", "setting": "[11]", "result": "inhibited"},
      {"measurement": "effect on TNFα", "setting": "[12]", "result": "without affecting"}
    ]}
  ]
}
